The assay has as its target FGFR2 (Homo sapiens, UniProt P21802). The experiment in a line: FGFR wild type enzyme assay (HTRF KinEASE-TK), FGFR2. The note with it: Enz FGFR2 (nM), FGFR2 wild type enzyme. In general terms: In TR-FRET formats the signal depends on donor and acceptor labels being close together.
Chain of FGFR2 (P21802 399-821 limits assumed): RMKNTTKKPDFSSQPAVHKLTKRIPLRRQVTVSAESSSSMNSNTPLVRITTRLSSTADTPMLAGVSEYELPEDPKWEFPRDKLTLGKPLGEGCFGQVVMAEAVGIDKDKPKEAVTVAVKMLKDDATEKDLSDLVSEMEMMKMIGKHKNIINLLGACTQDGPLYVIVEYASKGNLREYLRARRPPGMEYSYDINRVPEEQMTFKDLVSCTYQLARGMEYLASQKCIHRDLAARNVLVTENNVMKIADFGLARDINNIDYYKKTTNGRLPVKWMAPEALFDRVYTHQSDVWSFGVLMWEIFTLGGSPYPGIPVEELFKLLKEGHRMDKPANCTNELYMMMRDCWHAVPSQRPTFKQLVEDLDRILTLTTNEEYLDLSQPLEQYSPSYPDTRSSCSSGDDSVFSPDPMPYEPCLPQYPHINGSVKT
For orientation: IC50 means the midpoint of a concentration-inhibition curve. The low end stands for greater potency, the high end for weaker potency. `CC(=O)N1CC[C@]2(CC[C@H](n3ncc(-c4cc(Sc5ncccc5F)c5c(C#N)cnn5c4)c3C)CC2)C1` [Example 227, 6-(1-((5s,8s)-2-acetyl-2-azaspiro[4.5]decan-8-yl)-5-methyl-1H-pyrazol-4-yl)-4-((3-fluoropyridin-2-yl)thio)pyrazolo[1,5-a]pyridine-3-carbonitrile] returned a concentration for half-maximal inhibition (IC50) of 1 nM.

On to `Cc1c(-c2cc(Sc3ncccc3F)c3c(C#N)cnn3c2)cnn1[C@H]1CC[C@@H](NC(=O)CO)CC1` [Example 228, N-((1s,4s)-4-(4-(3-cyano-4-((3-fluoropyridin-2-yl)thio)pyrazolo[1,5-a]pyridin-6-yl)-5-methyl-1H-pyrazol-1-yl)cyclohexyl)-2-hydroxyacetamide], for which the IC50 amounted to 1 nM.

In turn, `Cc1c(-c2cc(Sc3ncc(F)cc3F)c3c(C#N)cnn3c2)cnn1[C@H]1CCCN(C(=O)CO)C1` [Example 229, (S)-4-((3,5-difluoropyridin-2-yl)thio)-6-(1-(1-(2-hydroxyacetyl)piperidin-3-yl)-5-methyl-1H-pyrazol-4-yl)pyrazolo[1,5-a]pyridine-3-carbonitrile] yielded a half-inhibitory concentration (IC50) of 3 nM.

For the compound `Cc1c(-c2cc(Sc3ccc(F)cc3C#N)c3c(C#N)cnn3c2)cnn1C1CCN(C)CC1` [Example 230, 4-((2-cyano-4-fluorophenyl)thio)-6-(5-methyl-1-(1-methylpiperidin-4-yl)-1H-pyrazol-4-yl)pyrazolo[1,5-a]pyridine-3-carbonitrile], the IC50 was found to be 1 nM.

The compound `CC(=O)N(C)[C@H]1CC[C@@H](n2ncc(-c3cc(Sc4ccccc4C#N)c4c(C#N)cnn4c3)c2C)CC1` [Example 231, N-((1s,4s)-4-(4-(3-cyano-4-((2-cyanophenyl)thio)pyrazolo [1,5-a]pyridin-6-yl)-5-methyl-1H-pyrazol-1-yl)cyclohexyl)-N-methylacetamide] had an IC50 of 1 nM.

For `Cc1c(-c2cc(Sc3ccccc3C#N)c3c(C#N)cnn3c2)cnn1C[C@@H]1CNCCO1` [Example 232, (S)-4-((2-cyanophenyl)thio)-6-(5-methyl-1-(morpholin-2-ylmethyl)-1H-pyrazol-4-yl)pyrazolo[1,5-a]pyridine-3-carbonitrile], the half-inhibitory concentration (IC50) came to 3.5 nM.

`Cc1c(-c2cc(Sc3ncccc3F)c3c(C#N)cnn3c2)cnn1C[C@@H]1CNCCO1` [Example 233, (S)-4-((3-fluoropyridin-2-yl)thio)-6-(5-methyl-1-(morpholin-2-ylmethyl)-1H-pyrazol-4-yl)pyrazolo[1,5-a]pyridine-3-carbonitrile] came in with a half-inhibitory concentration (IC50) of 6 nM.

On to `CC(=O)N1CCO[C@H](Cn2ncc(-c3cc(Sc4ncccc4F)c4c(C#N)cnn4c3)c2C)C1` [Example 234, (S)-6-(1-((4-acetylmorpholin-2-yl)methyl)-5-methyl-1H-pyrazol-4-yl)-4-((3-fluoropyridin-2-yl)thio)pyrazolo[1,5-a]pyridine-3-carbonitrile], for which half-maximal inhibition (IC50) required 5 nM.

For `Cc1c(-c2cc(Sc3ncccc3F)c3c(C#N)cnn3c2)cnn1C[C@H]1[C@@H]2CCC[C@@H]21` [Example 235, 6-(1-(((1R,5S,6r)-bicyclo[3.1.0]hexan-6-yl)methyl)-5-methyl-1H-pyrazol-4-yl)-4-((3-fluoropyridin-2-yl)thio)pyrazolo[1,5-a]pyridine-3-carbonitrile], inhibition was half-maximal at 4 nM (IC50).

`Cc1c(-c2cc(Sc3ncccc3F)c3c(C#N)cnn3c2)cnn1C[C@@H]1[C@@H]2CNC[C@@H]21` [Example 236, 6-(1-(((1R,5S,6s)-3-azabicyclo[3.1.0]hexan-6-yl)methyl)-5-methyl-1H-pyrazol-4-yl)-4-((3-fluoropyridin-2-yl)thio)pyrazolo[1,5-a]pyridine-3-carbonitrile] yielded an IC50 of 1 nM. This IC50 lies about 4-fold lower than the previous one.

In turn, `CC(=O)N1C[C@@H]2[C@H](C1)[C@H]2Cn1ncc(-c2cc(Sc3ncccc3F)c3c(C#N)cnn3c2)c1C` [Example 237, 6-(1-(((1R,5S,6r)-3-acetyl-3-azabicyclo[3.1.0]hexan-6-yl)methyl)-5-methyl-1H-pyrazol-4-yl)-4-((3-fluoropyridin-2-yl)thio)pyrazolo[1,5-a]pyridine-3-carbonitrile] showed a concentration for half-maximal inhibition (IC50) of 3 nM.

On to `CC(=O)N1C[C@@H]2[C@H](C1)[C@@H]2Cn1ncc(-c2cc(Sc3ncccc3F)c3c(C#N)cnn3c2)c1C` [Example 238, 6-(1-(((1R,5S,6s)-3-acetyl-3-azabicyclo[3.1.0]hexan-6-yl)methyl)-5-methyl-1H-pyrazol-4-yl)-4-((3-fluoropyridin-2-yl)thio)pyrazolo[1,5-a]pyridine-3-carbonitrile], for which half-maximal inhibition (IC50) was put at 3 nM.

`Cc1c(-c2cc(Sc3ncccc3F)c3c(C#N)cnn3c2)cnn1C[C@H]1CC[C@H](O)CC1` [Example 239, 4-((3-fluoropyridin-2-yl)thio)-6-(1-(((1r,4r)-4-hydroxycyclohexyl)methyl)-5-methyl-1H-pyrazol-4-yl)pyrazolo[1,5-a]pyridine-3-carbonitrile] came in with an IC50 of 3 nM.

On to `Cc1c(-c2cc(Sc3ncccc3F)c3c(C#N)cnn3c2)cnn1C1CCN(Cc2ccccn2)CC1` [Example 240, 4-((3-fluoropyridin-2-yl)thio)-6-(5-methyl-1-(1-(pyridin-2-ylmethyl)piperidin-4-yl)-1H-pyrazol-4-yl)pyrazolo[1,5-a]pyridine-3-carbonitrile], for which the IC50 worked out at 2 nM.

In turn, `Cc1c(-c2cc(Sc3ncccc3F)c3c(C#N)cnn3c2)cnn1[C@H]1CC[C@@H](N(C)CCO)CC1` [Example 241, 4-((3-fluoropyridin-2-yl)thio)-6-(1-((1s,4s)-4-((2-hydroxyethyl)(methyl)ami-no)cyclohexyl)-5-methyl-1H-pyrazol-4-yl)pyrazolo[1,5-a]pyridine-3-carbonitrile] yielded an IC50 of 1 nM.

In turn, `CCN[C@H]1CC[C@@H](n2ncc(-c3cc(Sc4ncccc4F)c4c(C#N)cnn4c3)c2C)CC1` [Example 242, 6-(1-((1s,4s)-4-(ethylamino)cyclohexyl)-5-methyl-1H-pyrazol-4-yl)-4-((3-fluoropyridin-2-yl)thio)pyrazolo[1,5-a]pyridine-3-carbonitrile] gave a half-maximal inhibitory concentration (IC50) of 1 nM.

Regarding `Cc1c(-c2cc(Sc3ncccc3F)c3c(C#N)cnn3c2)cnn1[C@H]1CC[C@@H](NC(C)C)CC1` [Example 243, 4-((3-fluoropyridin-2-yl)thio)-6-(1-((1s,4s)-4-(isopropylamino)cyclohex-yl)-5-methyl-1H-pyrazol-4-yl)pyrazolo[1,5-a]pyridine-3-carbonitrile], the IC50 stood at 1 nM.

In turn, `Cc1c(-c2cc(Sc3ncccc3F)c3c(C#N)cnn3c2)cnn1[C@H]1CC[C@@H](NCC(F)(F)F)CC1` [Example 244, 4-((3-fluoropyridin-2-yl)thio)-6-(5-methyl-1-((1s,4s)-4-((2,2,2-trifluoroethyl)amino)cyclo-hexyl)-1H-pyrazol-4-yl)pyrazolo[1,5-a]pyridine-3-carbonitrile] gave an IC50 of 2.5 nM.

As to `CC(=O)N1C[C@H]2C[C@H](n3ncc(-c4cc(Sc5ncccc5F)c5c(C#N)cnn5c4)c3C)C[C@H]2C1` [Example 245, 6-(1-((3aR,5s,6aS)-2-acetyloctahydrocylcopenta [c]pyrrol-5-yl)-5-methyl-1H-pyrazol-4-yl)-4-((3-fluoropyridin-2-yl)thio)pyrazolo[1,5-a]pyridine-3-carbonitrile], the IC50 was 2.5 nM.

In turn, `Cc1c(-c2cc(Sc3ncccc3F)c3c(C#N)cnn3c2)cnn1[C@H]1C[C@H](CO)C1` [Example 246, 4-((3-fluoropyridin-2-yl)thio)-6-(1-((1r,3r)-3-(hydroxymethyl)cyclobutyl)-5-methyl-1H-pyrazol-4-yl)pyrazolo[1,5-a]pyridine-3-carbonitrile] gave a concentration for half-maximal inhibition (IC50) of 4 nM.

The compound `CN(C)[C@H]1CC[C@@H](n2cc(-c3cc(Sc4ncccc4F)c4c(C#N)cnn4c3)cn2)CC1` [Example 247, 6-(1-((1s,4s)-4-(dimethylamino)cyclohex-yl)-1H-pyrazol-4-yl)-4-((3-fluoropyridin-2-yl)thio)pyrazolo[1,5-a]pyridine-3-carbonitrile] gave an IC50 of 1 nM.

`CC(=O)N(C)[C@H]1CC[C@@H](n2ncc(-c3cc(Sc4ncccc4F)c4c(C#N)cnn4c3)c2C)CC1` [Example 248, N-((1s,4s)-4-(4-(3-cyano-4-((3-fluoropyridin-2-yl)thio)pyrazolo[1,5-a]pyridin-6-yl)-5-methyl-1H-pyrazol-1-yl)cyclohexyl)-N-methylacetamide] registered a 50% inhibitory concentration (IC50) of 2 nM.

As for `Cc1c(-c2cc(Sc3ncccc3F)c3c(C#N)cnn3c2)cnn1[C@H]1CC[C@@H](N(C)S(C)(=O)=O)CC1` [Example 249, N-((1s,4s)-4-(4-(3-cyano-4-((3-fluoropyridin-2-yl)thio)pyrazolo[1,5-a]pyridin-6-yl)-5-methyl-1H-pyrazol-1-yl)cyclohexyl)-N-methylmethanesulfonamide], the IC50 came to 3 nM.

Regarding `CCN[C@H]1CC[C@@H](n2ncc(-c3cc(Sc4ccccc4C#N)c4c(C#N)cnn4c3)c2C)CC1` [Example 250, 4-((2-cyanophenyl)thio)-6-(1-((1s,4s)-4-(ethylamino)cylcohexyl)-5-methyl-1H-pyrazol-4-yl)pyrazolo[1,5-a]pyridine-3-carbonitrile], the IC50 is 0.4 nM.

In the case of `Cc1c(-c2cc(Sc3ccccc3C#N)c3c(C#N)cnn3c2)cnn1[C@H]1CC[C@@H](NC(C)C)CC1` [Example 251], half-maximal inhibition (IC50) required 0.5 nM. The IC50 values of the last two compounds are within 1.5-fold of each other.

`Cc1c(-c2cc(Sc3ncccc3F)c3c(C#N)cnn3c2)cnn1C1CCNC(C)C1` (stereo not drawn) [Example 252, 4-((3-fluoropyridin-2-yl)thio)-6-(5-methyl-1-(2-methylpiperidin-4-yl)-1H-pyrazol-4-yl)pyrazolo[1,5-a]pyridine-3-carbonitrile] gave a 50% inhibitory concentration (IC50) of 1 nM.

Regarding `Cc1c(-c2cc(Sc3ncccc3F)c3c(C#N)cnn3c2)cnn1[C@H]1CC[C@@H](NCC2(C)CC2)CC1` [Example 253, 4-((3-fluoropyridin-2-yl)thio)-6-(5-methyl-1-((1s,4s)-4-(((1-methylcyclopropyl)methyl)amino)cyclohexyl)-1H-pyrazol-4-yl)pyrazolo[1,5-a]pyridine-3-carbonitrile], the IC50 was found to be 0.6 nM.

For the origin of these results see patent publication US20240270741A1 (Cogent Biosciences, Inc., priority 2023, published 2024).
